The values below are quoted from earlier work in US20260007589A1, “METHOD FOR DYEING KERATINOUS MATERIAL COMPRISING THE USE OF AN ORGANOSILICON COMPOUND, AN EFFECT PIGMENT, AND A FILM-FORMING POLYMER III” (Henkel AG & Co. KGaA, priority 2019, published 2026).

Where two headings read alike, the source gives them in different places.

In the case of `Nc1cc(S(=O)(=O)[O-])cc2cc(S(=O)(=O)[O-])c(N=Nc3ccccc3)c(O)c12.[Na+].[Na+]` [Acid Red 33, disodium salt of 5-amino-4-hydroxy-3-(phenylazo)-naphthalene-2,7-disulphonate], the solubility in water (25° C.) was 2500 µg/mL.

On to `O=C([O-])c1c(Cl)c(Cl)c(Cl)c(Cl)c1-c1c2c(Br)cc(=O)c(Br)c-2oc2c(Br)c(O)cc(Br)c12.O=C([O-])c1c(Cl)c(Cl)c(Cl)c(Cl)c1-c1c2c(Br)cc(=O)c(Br)c-2oc2c(Br)c(O)cc(Br)c12.[Na+].[Na+]` [Acid Red 92, disodium salt of 3,4,5,6-tetrachloro-2-(1,4,5,8-tetrabromo-6-hydroxy-3-oxoxanthen-9-yl)benzoic acid], for which, for the setting “25° C.”, the solubility in water result is listed as “greater than 10 g/L”.

Consider `O=C([O-])C1=NN(c2ccc(S(=O)(=O)[O-])cc2)C(=O)C1N=Nc1ccc(S(=O)(=O)[O-])cc1.[Na+].[Na+].[Na+]` (centres unmarked) [Acid Yellow 23, trisodium salt of 4,5-dihydro-5-oxo-1-(4-sulfophenyl)-4-((4-sulfophenyl)azo)-1H-pyrazole-3-carboxylic acid], for which the “solubility in water” value (at 25° C.) was “highly soluble in water”.

In the case of `CCN(Cc1cccc(S(=O)(=O)[O-])c1)c1ccc(C(=C2C=CC(=[N+](CC)Cc3cccc(S(=O)(=O)[O-])c3)C=C2)c2ccccc2S(=O)(=O)[O-])cc1.[Na+].[Na+]` [Acid Blue 9], the solubility in water entry (25° C.) is given as “more than 20 % by weight”.

For `O=S(=O)([O-])c1ccc(N=Nc2c(O)ccc3ccccc23)cc1.[Na+]` [Acid Orange 7, sodium salt of 4-[(2-hydroxy-1-naphthyl)azo]benzene sulphonate], under “25° C.”, the solubility in water result is recorded as “more than 7 g/L”.
